Experimental data reported in patent US8399466B2, “Composition for regenerative treatment of cartilage disease” (Mitsubishi Tanabe Pharma Corporation, priority 2001, dated 2013).

Test system: gonarthrosis induced by partial excision of medial meniscus/abscission of bilateral collateral ligaments
Test: Regenerative healing effects on gonarthrosis induced by partial excision of medial meniscus/abscission of bilateral collateral ligaments
Assay type: in vivo, rabbit
Settings: 1 μg in microsphere of Example 7-(1), intra-articular two and six weeks after operation; ten weeks after operation; control 18.86 ± 2.03
Description: Japanese White rabbits (male; 10-week-old; 7 rabbits/group) were housed for 16 days at room temperature (23±2° C.) and 55±15% humidity. During the housing period, the rabbits were free to access commercially available food (Oriental Bio Service; LRC4).
Under ether anesthesia, the right knee joint of each rabbit was excised and ½ portion of medial meniscus was isolated with double-edged small straight scissors. The bilateral collateral ligaments were also cut. After the operation, muscle and epidermal tissues were sutured and sterilized. Two weeks from the operation, under ether anesthesia, each rabbit of the test group (7 rabbits/group) was administered intra-articularly the drug-containing microsphere prepared in Example 7-(1), which contains 1 μg of Compound (2). The rabbit of the control group (7 rabbits/group) received the same amount of drug-free microsphere prepared in Control Example 2. […]
After wiping off the excess India Ink, the overhead surface image of the formalin-fixed tibial proximal end was imported into an analyzer, Image Analyzer (IMAGING RESEARCH, MICD imaging analyzer), with a stereomicroscope (OLYMPUS OPTICAL Co., Ltd. model SZX12-2111). […] The gross medial area was also measured and the percentage (%) (the degenerated area rate) of the degenerated medial area in the gross medial area was calculated.

CCOc1cc2cc(CO)c(CO)c(-c3ccnc(-n4nc(-c5cccnc5)c5ccccc5c4=O)c3)c2cc1OCC [Compound (2)]
Degenerated Area Rate (%): 10.16 ± 1.35%
